# Laboratory results published in patent US20160166578A1, “METHOD FOR TREATING TYPE I AND TYPE II DIABETES” (PRISM Phama Ltd., priority 2012, published 2016).
# Tests used:
# [1] = test system: Wnt signaling pathway; assay: Reporter gene assay (SuperTOPFlash luciferase, STF reporter cell line); format: cell-based; settings: Homo sapiens; at a concentration of 1 μM; Hek-293 STF reporter cells, LiCl stimulation, 24 hours; read-out: inhibitory activity
# Protocol: Screening for inhibitory action of the Wnt signaling pathway was carried out according to the following procedure using an STF reporter cell line (human embryonic kidney cell line Hek-293 stably transfected with the firefly luciferase gene under the control of eight tandem repeats of the SuperTOPFlash reporter element; Cell 116:883-895, 2004).
# Growth Medium: Dulbecco's Modified Eagle Medium (DMEM), 10% FBS, Pen-Strep, supplemented with 400 µg/ml G418 antibiotic to maintain selection of SuperTOPFlash driven luciferase gene.
# On the day prior to assay, cells were split into a white opaque 96-well plate at 20,000 cells per well in 200 microliters of complete growth medium. The plate was incubated overnight at 37° C., 5% CO2 to allow the cells to attach to the surface.
# The next day, the inhibitors were prepared to be tested in complete growth medium, without G418, at 2× the desired final concentration (all conditions are done in duplicate). The existing medium was carefully pipetted from each well using a multiple pipettor. 50 microliters of fresh growth medium (without G148) containing the inhibitor (Compound A) was added to each well. […]
# After 24 hours, 100 microliters of BrightGlo reagent (Promega, Madison, Wis.) was added to each well. […] The plate was read using a Packard TopCount (PerkinElmer, Inc.).
# [2] = Blood glucose levels in human clinical trial (patients with cancer and type II diabetes); format: in vivo; settings: for blood glucose levels: 7 days continuous IV infusion, one week on and one week off
# Protocol: Patients with cancer and type II diabetes were enrolled in a clinical trial (Safety and Efficacy Study in Subjects With Advanced Solid). The efficacy of Compound A for the treatment of diabetes was investigated by measurement of the blood glucose level of the patients. Conditions of patients enrolled in this study are as follows:
# (Patient 101), with sigmoid colon cancer and diabetes. Compound A was administered at 40 mg/m^2/day, and Metformin Hydrochloride
# (Patient 1103), with colon cancer and diabetes. Compound A was administered at 905 mg/m^2/day, in addition patient was treated with pioglitazone hydrochloride (Actos) and Metformin Hydrochloride.
# Compound A administration was 7 days continuous IV infusion. The cycle of administration is one week on and one week off.
# In addition to already prescribed drugs (pioglitazone hydrochloride or Metformin Hydrochloride) as basic treatment, Compound A with a defined dose for each patient was intravenously administrated for 7 continuous days followed by a 7-day rest period. This 14 days period with 7-day infusion period and 7-day rest period is defined as one cycle. Basic treatment for diabetes was continuously performed during this period. During the administration period (first, fifth and eighth day of each cycle) or after the administration, blood glucose levels were measured.
# [3] = Primate study in aged hyperglycemic monkeys (c-peptide, insulin, HbA1c); format: in vivo, Macaca fascicularis; settings: 8 mg/Kg/Day continuous infusion i.p., 84 days
# Protocol: Animals: aged Macaca fascicularis (21 to 27 years old) monkeys that have hyperglycemia, N=3.
# Administration: Compound A (8 mg/Kg/Day) administrated by continuous infusion by i.p. from day 152 to 236 (84 days). Biochemical tests: c-peptide, insulin, and HbA1c levels were measured every week.
# C-peptide, a byproduct of insulin production that is elevated in hyperglycemia, was measured using ELECSYS c-peptide assay (Roche Diagnostics, Hoffmann-La Roche Ltd.) with electrochemiluminescence assay (ECLIA) readout.
# Insulin levels were measured using the E test II IRI, EIA method (TOSOH Corp., Tokyo). Insulin levels are elevated in hyperglycemia.
# HbA1c or glycated hemoglobin (hemoglobin A1c) was measured to identify the average glycated hemoglobin, as a measure of plasma glucose concentration, over the previous months prior to the measurement. HbA1c levels are elevated in hyperglycemia. HbA1c was measured using the Nordia N HbA1c assay kit, enzyme method (Sekisui Medical Co., Ltd., Japan).
structure (smiles),measurement,setting,value
"C[C@H]1[C@H]2N(C(=O)CN(C)N2C(=O)NCc2ccccc2)[C@@H](Cc2ccc(OP(=O)(O)O)cc2)C(=O)N1Cc1cccc2cccnc12 [Compound A, 4-(((6S,9S,9aS)-1-(benzylcarbamoyl)-2,9-dimethyl-4,7-dioxo-8-(quinolin-8-ylmethyl)octahydro-1H-pyrazino[2,1-c][1,2,4]triazin-6-yl)methyl)phenyl dihydrogen phosphate]",inhibition at 1 µM,[1],> 50%
same,blood glucose levels,"[2]; Patient 101, 40 mg/m^2/day, with Metformin Hydrochloride, by the end of every cycle (FIG. 1)",blood glucose levels are reduced
same,blood glucose levels,"[2]; Patient 1103, 905 mg/m^2/day, with pioglitazone hydrochloride and Metformin Hydrochloride, by the end of every cycle (FIG. 2)",blood glucose levels are reduced
same,blood glucose level of patients with type II diabetes not adequately controlled by known drugs,[2]; concomitant use with known drugs for type II diabetes,significantly decreased
same,adverse effects of concomitant use,"[2]; patients with type II diabetes, concomitant with known drugs for diabetes",No adverse effects
same,c-peptide levels,[3]; FIG. 3,c-peptide levels fall over time
same,insulin levels,[3]; FIG. 4,insulin levels fall over time
same,HbA1c levels (ratio of mmol HbA1c to mol hemoglobin),[3]; FIG. 5,HbA1c levels fall over time
